Assay results reported in PMC11859916, “Design, Synthesis, and Biological Evaluation of a Novel [^18F]AlF-H3RESCA-FAPI Radiotracer Targeting Fibroblast Activation Protein” (Pharmaceuticals, 2025).

Experiments:
[1] = target: T1, recombinant human FAP protein (Homo sapiens, UniProt Q12884); assay: Biacore SPR binding affinity measurement; settings: read-out: KD (equilibrium dissociation constant)
T1 construct: purchased Sino Biological Inc., Beijing, China 10464-H07H
T1 sequence (Q12884 1-760): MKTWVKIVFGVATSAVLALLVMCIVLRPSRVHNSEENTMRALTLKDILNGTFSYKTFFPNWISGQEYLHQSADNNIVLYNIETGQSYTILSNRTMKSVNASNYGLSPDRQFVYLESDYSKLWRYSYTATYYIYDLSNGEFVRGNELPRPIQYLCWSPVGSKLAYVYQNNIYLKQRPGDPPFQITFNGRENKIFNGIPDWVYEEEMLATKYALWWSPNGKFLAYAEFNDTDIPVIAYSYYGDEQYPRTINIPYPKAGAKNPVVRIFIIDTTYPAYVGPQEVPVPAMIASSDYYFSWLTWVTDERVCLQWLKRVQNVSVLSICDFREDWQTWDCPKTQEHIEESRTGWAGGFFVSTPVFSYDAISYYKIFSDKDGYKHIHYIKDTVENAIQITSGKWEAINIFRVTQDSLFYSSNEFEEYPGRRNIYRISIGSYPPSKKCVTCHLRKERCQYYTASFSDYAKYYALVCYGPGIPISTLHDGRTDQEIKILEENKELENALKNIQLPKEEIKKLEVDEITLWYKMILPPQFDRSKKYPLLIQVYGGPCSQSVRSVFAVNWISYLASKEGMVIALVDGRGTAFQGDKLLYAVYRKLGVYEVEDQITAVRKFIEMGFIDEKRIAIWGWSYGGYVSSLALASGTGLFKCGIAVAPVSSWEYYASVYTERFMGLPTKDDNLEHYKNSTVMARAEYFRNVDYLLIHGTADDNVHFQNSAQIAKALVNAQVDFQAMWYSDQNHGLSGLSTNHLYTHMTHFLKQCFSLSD
Description: In order to determine the binding kinetics between ligands and human FAP protein (10464-H07H, Sino Biological Inc., Beijing, China), the Biacore SPR interaction study was conducted. The binding affinity is expressed by the equilibrium dissociation constant (KD) (M), which is calculated from the values of the measured binding rate constant (ka) (M^−1 s^−1) and dissociation rate (kd) (s^−1).

[2] = Octanol-water partition coefficient (n-octanol/PBS); format: physicochemical; settings: n-octanol/PBS 1:1, ambient temperature
Description: Radiotracers [^68Ga]Ga-DOTA-FAPI-04 and [^18F]AlF-H3RESCA-FAPI (0.37 MBq, about 50 µL) were added to tubes containing n-octanol/PBS mixture (1 mL, 1:1). The mixture was vortexed vigorously for 5 min at ambient temperature and then centrifuged for five min at 8000 rpm. In each phase, three samples (each 50 µL) were removed and measured in γ-counter (PerkinElmer). The partition coefficient was expressed as an equation as follows:(1) LogD7.4=LogCPM(n−octanol)/CPM(PBS)

Kd [1] [nM]	logD7.4 (octanol-water partition coefficient) [2]	Structure (SMILES)
< 0.0101	–	N#C[C@@H]1CC(F)(F)CN1C(=O)CNC(=O)c1ccnc2ccc(OCCCN3CCN(C(=O)Cc4ccc(CN(CC(=O)O)[C@@H]5CCCC[C@H]5N(CC(=O)O)CC(=O)O)cc4)CC3)cc12 [H3RESCA-FAPI, 2,2′-(((1R,2R)-2-((carboxymethyl)(4-(2-(4-(3-((4-((2-((S)-2-cyano-4,4-difluoropyrrolidin-1-yl)-2-oxoethyl)carbamoyl)quinolin-6-yl)oxy)propyl)piperazin-1-yl)-2-oxoethyl)benzyl)amino)cyclohexyl)azanediyl)diacetic acid]
–	−3.53 ± 0.05	N#C[C@@H]1CC(F)(F)CN1C(=O)CNC(=O)c1ccnc2ccc(OCCCN3CCN(C(=O)CN4CCN(CC(=O)[O-])CCN(CC(=O)O)CCN(CC(=O)[O-])CC4)CC3)cc12.[68Ga+3] [[^68Ga]Ga-DOTA-FAPI-04]
